Data as given in ChEMBL document CHEMBL1201862, “PubChem BioAssay data set” (2004).
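Compound exposure: 48 hours, 5 concentrations, 96-well plates. Abbreviation: GI50, concentration required for 50% inhibition of growth.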 Calls of active or inactive are those of the source. Cut-off read from the data, not from the text of the source: active = GI50 up to about 1.1 µM and inactive = higher.

Key:
Test in all cases: NCI-60 cell line screen, 48 h
UACC-257 = tested on: UACC-257
SK-MEL-28 = tested on: SK-MEL-28
SNB-75 = tested on: SNB-75
HT-29 = tested on: HT-29
MCF7 = tested on: MCF7
OVCAR-5 = tested on: OVCAR-5
MDA-N = tested on: MDA-N
MDA-MB-231 = tested on: MDA-MB-231
KM12 = tested on: KM12
ACHN = tested on: ACHN
A498 = tested on: A498
HOP-92 = tested on: HOP-92
NCI-H522 = tested on: NCI-H522
SNB-19 = tested on: SNB-19
IGROV-1 = tested on: IGROV-1
MOLT-4 = tested on: MOLT-4
NCI-H23 = tested on: NCI-H23
SK-OV-3 = tested on: SK-OV-3
SN12C = tested on: SN12C
SK-MEL-2 = tested on: SK-MEL-2
DU-145 = tested on: DU-145
SW-620 = tested on: SW-620
NCI/ADR-RES = tested on: NCI/ADR-RES
OVCAR-8 = tested on: OVCAR-8
SF-268 = tested on: SF-268
SR = tested on: SR
OVCAR-3 = tested on: OVCAR-3
EKVX = tested on: EKVX
RXF 393 = tested on: RXF 393
786-0 = tested on: 786-0
Malme-3M = tested on: Malme-3M
CAKI-1 = tested on: CAKI-1
Hs-578T = tested on: Hs-578T
K562 = tested on: K562
SF-295 = tested on: SF-295
UO-31 = tested on: UO-31
CCRF-CEM = tested on: CCRF-CEM
NCI-H460 = tested on: NCI-H460
A549 = tested on: A549
SK-MEL-5 = tested on: SK-MEL-5
HCT-116 = tested on: HCT-116
BT-549 = tested on: BT-549
M14 = tested on: M14
NCI-H226 = tested on: NCI-H226
RPMI-8226 = tested on: RPMI-8226
HOP-62 = tested on: HOP-62
U-251 = tested on: U-251
T47D = tested on: T47D
OVCAR-4 = tested on: OVCAR-4
MDA-MB-435 = tested on: MDA-MB-435
COLO 205 = tested on: COLO 205
PC-3 = tested on: PC-3
HCT-15 = tested on: HCT-15
SF-539 = tested on: SF-539
HL-60 = tested on: HL-60
UACC-62 = tested on: UACC-62
TK-10 = tested on: TK-10
LOX IMVI = tested on: LOX IMVI

## CCOC(=O)C(C)c1nc2cc(N3CCN(C)CC3)c(F)cc2[nH]c1=O (centres undefined)
UACC-257
  GI50: > 100 µM (inactive)
SK-MEL-28
  GI50: > 100 µM (inactive)
SNB-75
  GI50: > 100 µM (inactive)
HT-29
  GI50: > 100 µM (inactive)
MCF7
  GI50: > 100 µM (inactive)
OVCAR-5
  GI50: > 100 µM (inactive)
MDA-N
  GI50: > 100 µM (inactive)
MDA-MB-231
  GI50: > 100 µM (inactive)
KM12
  GI50: > 100 µM (inactive)
ACHN
  GI50: > 100 µM (inactive)
A498
  GI50: > 100 µM (inactive)
HOP-92
  GI50: > 100 µM (inactive)
NCI-H522
  GI50: 40.5 µM (inactive)
SNB-19
  GI50: > 100 µM (inactive)
IGROV-1
  GI50: > 100 µM (inactive)
MOLT-4
  GI50: > 100 µM (inactive)
NCI-H23
  GI50: > 100 µM (inactive)
SK-OV-3
  GI50: > 100 µM (inactive)
SN12C
  GI50: > 100 µM (inactive)
SK-MEL-2
  GI50: > 100 µM (inactive)
DU-145
  GI50: > 100 µM (inactive)
SW-620
  GI50: > 100 µM (inactive)
NCI/ADR-RES
  GI50: > 100 µM (inactive)
OVCAR-8
  GI50: > 100 µM (inactive)
SF-268
  GI50: > 100 µM (inactive)
SR
  GI50: > 100 µM (inactive)
OVCAR-3
  GI50: > 100 µM (inactive)
EKVX
  GI50: > 100 µM (inactive)
RXF 393
  GI50: > 100 µM (inactive)
786-0
  GI50: > 100 µM (inactive)
Malme-3M
  GI50: 28.9 µM (inactive)
CAKI-1
  GI50: > 100 µM (inactive)
Hs-578T
  GI50: > 100 µM (inactive)
K562
  GI50: > 100 µM (inactive)
SF-295
  GI50: > 100 µM (inactive)
UO-31
  GI50: > 100 µM (inactive)
CCRF-CEM
  GI50: > 100 µM (inactive)
NCI-H460
  GI50: > 100 µM (inactive)
A549
  GI50: > 100 µM (inactive)
SK-MEL-5
  GI50: > 100 µM (inactive)
HCT-116
  GI50: > 100 µM (inactive)
BT-549
  GI50: > 100 µM (inactive)
M14
  GI50: > 100 µM (inactive)
NCI-H226
  GI50: > 100 µM (inactive)
RPMI-8226
  GI50: > 100 µM (inactive)
HOP-62
  GI50: > 100 µM (inactive)
U-251
  GI50: > 100 µM (inactive)
T47D
  GI50: > 100 µM (inactive)
OVCAR-4
  GI50: > 100 µM (inactive)
MDA-MB-435
  GI50: > 100 µM (inactive)
COLO 205
  GI50: > 100 µM (inactive)
PC-3
  GI50: > 100 µM (inactive)
HCT-15
  GI50: > 100 µM
SF-539
  GI50: > 100 µM (inactive)
HL-60
  GI50: > 100 µM (inactive)
UACC-62
  GI50: > 100 µM (inactive)

## CC(C)(C)C1=NC(=P(c2ccccc2)(c2ccccc2)c2ccccc2)C(=O)O1
UACC-257
  GI50: > 100 µM (inactive)
SK-MEL-28
  GI50: > 100 µM (inactive)
SNB-75
  GI50: 6.21 µM (inactive)
HT-29
  GI50: > 100 µM (inactive)
MCF7
  GI50: > 100 µM (inactive)
OVCAR-5
  GI50: > 100 µM (inactive)
MDA-N
  GI50: > 100 µM (inactive)
MDA-MB-231
  GI50: > 100 µM (inactive)
KM12
  GI50: > 100 µM (inactive)
ACHN
  GI50: > 100 µM (inactive)
A498
  GI50: > 100 µM (inactive)
HOP-92
  GI50: > 100 µM (inactive)
NCI-H522
  GI50: 20.2 µM (inactive)
SNB-19
  GI50: > 100 µM (inactive)
TK-10
  GI50: > 100 µM (inactive)
IGROV-1
  GI50: > 100 µM (inactive)
MOLT-4
  GI50: > 100 µM (inactive)
LOX IMVI
  GI50: > 100 µM (inactive)
NCI-H23
  GI50: > 100 µM (inactive)
SK-OV-3
  GI50: > 100 µM (inactive)
SN12C
  GI50: > 100 µM (inactive)
SK-MEL-2
  GI50: > 100 µM (inactive)
DU-145
  GI50: > 100 µM (inactive)
SW-620
  GI50: > 100 µM (inactive)
NCI/ADR-RES
  GI50: > 100 µM (inactive)
OVCAR-8
  GI50: > 100 µM (inactive)
SF-268
  GI50: > 100 µM (inactive)
SR
  GI50: > 100 µM (inactive)
EKVX
  GI50: 22.5 µM (inactive)
RXF 393
  GI50: > 100 µM (inactive)
786-0
  GI50: > 100 µM (inactive)
Malme-3M
  GI50: 98.4 µM (inactive)
CAKI-1
  GI50: > 100 µM (inactive)
Hs-578T
  GI50: > 100 µM (inactive)
K562
  GI50: > 100 µM (inactive)
SF-295
  GI50: > 100 µM (inactive)
UO-31
  GI50: > 100 µM (inactive)
CCRF-CEM
  GI50: > 100 µM (inactive)
A549
  GI50: > 100 µM (inactive)
SK-MEL-5
  GI50: > 100 µM (inactive)
HCT-116
  GI50: > 100 µM (inactive)
BT-549
  GI50: > 100 µM (inactive)
M14
  GI50: > 100 µM (inactive)
NCI-H226
  GI50: > 100 µM (inactive)
RPMI-8226
  GI50: > 100 µM (inactive)
HOP-62
  GI50: > 100 µM (inactive)
U-251
  GI50: > 100 µM (inactive)
T47D
  GI50: > 100 µM (inactive)
MDA-MB-435
  GI50: > 100 µM (inactive)
COLO 205
  GI50: > 100 µM (inactive)
PC-3
  GI50: > 100 µM (inactive)
HL-60
  GI50: > 100 µM (inactive)
UACC-62
  GI50: > 100 µM (inactive)
